Some test systems named below: HCT-116 colon; IGROV1 ovarian; 786-0 renal; SK-MEL-2 melanoma; M14 melanoma; A498 renal; U251 CNS; MOLT-4 leukemia; TK-10 renal; NCI-H226 lung.
Common to all, as to assay: NCI tumour cell line growth inhibition, 48 h

The structures appear in SMILES notation.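 Interpolation was linear, between the two tested concentrations surrounding the appropriate level; five concentrations were tested over 48 hours in 96-well plates. GI50 marks 50% less growth. TGI: concentration producing complete growth inhibition.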 Bounds are passed on as bounds.

Turning to `COCCn1cc(-c2csc(-c3c[nH]c4ccc(Br)cc34)n2)c2cccnc21`, the GI50 is 3.84 µM in the assay on HCT-116 colon; 4.06 µM with IGROV1 ovarian; 4.03 µM in the assay on 786-0 renal; 6.82 µM with SK-MEL-2 melanoma; 3.27 µM in the assay with M14 melanoma; 3.02 µM in the assay on A498 renal. The GI50 in the assay with U251 CNS was 6.18 µM; with MOLT-4 leukemia, 3.87 µM. The TGI was more than 100 µM in the assay on HCT-116 colon; more than 100 µM with IGROV1 ovarian; more than 100 µM with 786-0 renal; 67.6 µM in the assay on SK-MEL-2 melanoma; 60.2 µM in the assay on M14 melanoma; 15.9 µM in the assay with A498 renal. Further, the TGI is 73.2 µM with U251 CNS and more than 100 µM in the assay on MOLT-4 leukemia.

Take `CCCCCCCC(=O)[O][Hg][CH2]C1COC([CH2][Hg][O]C(=O)CCCCCCC)CO1` (stereo not given): the GI50 was 2.29 µM in the assay with HCT-116 colon; 18 µM in the assay on IGROV1 ovarian; 7.95 µM in the assay with 786-0 renal; 19.6 µM in the assay with TK-10 renal; 16.4 µM with M14 melanoma; 15.2 µM in the assay on U251 CNS. Further, in the assay on MOLT-4 leukemia, the GI50 is 2.26 µM. Besides, the TGI with HCT-116 colon worked out at 8.26 µM; in the assay on IGROV1 ovarian, 38.3 µM; with 786-0 renal, 30.4 µM; in the assay with TK-10 renal it was 33.7 µM; with M14 melanoma it was 30 µM; in the assay with U251 CNS, 28.6 µM. This molecule registered a TGI in the assay with MOLT-4 leukemia of more than 100 µM.

Turning to `CCC[CH2][Pb]([Cl])([CH2]CCC)[CH2]CCC`, the GI50 was 0.0176 µM with HCT-116 colon; 0.0603 µM in the assay on IGROV1 ovarian; 0.0177 µM with 786-0 renal; 0.0229 µM with SK-MEL-2 melanoma; 0.0317 µM with TK-10 renal; 0.0192 µM in the assay with M14 melanoma. Also, the GI50 with A498 renal was 0.0483 µM; in the assay with U251 CNS, 0.0161 µM; with MOLT-4 leukemia, 0.0245 µM. Further, the TGI is 0.0345 µM in the assay on HCT-116 colon; 0.179 µM with IGROV1 ovarian; 0.037 µM with 786-0 renal; 0.0724 µM in the assay with SK-MEL-2 melanoma; 0.0913 µM in the assay on TK-10 renal; 0.0417 µM with M14 melanoma. Besides, the TGI in the assay with A498 renal was found to be 0.148 µM; in the assay with U251 CNS, 0.0304 µM; with MOLT-4 leukemia, 0.731 µM.

For `[O-]c1c2c(nn1-c1ccc(Cl)cc1)c1ccccc1c[n+]2Cc1ccccc1`, the TGI in the assay with HCT-116 colon, in the assay with NCI-H226 lung, in the assay with IGROV1 ovarian, in the assay on 786-0 renal, in the assay with SK-MEL-2 melanoma and in the assay with TK-10 renal was more than 100 µM each time. Further, the TGI in the assay on M14 melanoma, in the assay with U251 CNS and in the assay with MOLT-4 leukemia was more than 100 µM in each case.

On to `Fc1ccc(Nc2nc3ccccc3c3occc23)cc1`, for which the GI50 in the assay with HCT-116 colon is 0.13 µM; in the assay with IGROV1 ovarian it was 2.62 µM; in the assay on 786-0 renal, 1.03 µM; in the assay on SK-MEL-2 melanoma, 11.9 µM; in the assay on TK-10 renal, 2.06 µM; in the assay with M14 melanoma it was 0.873 µM. Moreover, the GI50 with U251 CNS was 12.3 µM. Further, the TGI was found to be 2.41 µM in the assay with HCT-116 colon; 35.1 µM with IGROV1 ovarian; 10.6 µM in the assay with 786-0 renal; 27.6 µM in the assay on SK-MEL-2 melanoma; 6.67 µM with TK-10 renal; 13.7 µM with M14 melanoma. The same molecule yielded a TGI in the assay with U251 CNS of 24.7 µM.

Consider `C1C[OH+]CC[OH+]CCNCC[OH+]CC[OH+]CCN1.Cl.[Cl-].[Pt+4]`, for which the GI50 in the assay with HCT-116 colon, with IGROV1 ovarian, with 786-0 renal, in the assay on TK-10 renal, with M14 melanoma and with A498 renal was more than 100 µM throughout. Also, the GI50 in the assay on U251 CNS and in the assay on MOLT-4 leukemia was more than 100 µM throughout. For the same molecule, the TGI in the assay with HCT-116 colon, in the assay with IGROV1 ovarian, in the assay on 786-0 renal, with TK-10 renal, with M14 melanoma and with A498 renal was more than 100 µM each time. In addition, the TGI with U251 CNS and with MOLT-4 leukemia was more than 100 µM in each case.

Turning to `COc1ccc(-c2cc(=O)c3c(O)cc(O)cc3o2)c(OC)c1OC`, the TGI in the assay with NCI-H226 lung, with IGROV1 ovarian, in the assay on 786-0 renal, with SK-MEL-2 melanoma, in the assay on TK-10 renal and in the assay on M14 melanoma was more than 100 µM each time.

For `COc1cc(/C=C2\C[C@H]3[C@@H]4CC=C5C[C@@H](OC(C)=O)CC[C@]5(C)[C@H]4CC[C@]3(C)[C@H]2OC(C)=O)ccc1OCCN1CCCC1`, the GI50 with HCT-116 colon is 10.5 µM; in the assay with NCI-H226 lung, 9.67 µM; with IGROV1 ovarian, 19.3 µM; in the assay with 786-0 renal, 8.82 µM; in the assay with SK-MEL-2 melanoma, 20.2 µM; in the assay on TK-10 renal it was 9.07 µM. Also, the values for the GI50 in the assay with M14 melanoma and in the assay with MOLT-4 leukemia were 8.56 µM and 10.7 µM, respectively. Also, the TGI with HCT-116 colon was 30.7 µM; in the assay on NCI-H226 lung, 18.6 µM; with IGROV1 ovarian, more than 50 µM; with 786-0 renal, 18.3 µM; in the assay with SK-MEL-2 melanoma, more than 50 µM; in the assay with TK-10 renal, 19.7 µM. Also, the figures for the TGI with M14 melanoma and with MOLT-4 leukemia were 30.4 µM and more than 50 µM, respectively.

Turning to `CSc1ccc(C(=O)/C=C/c2ccccc2Cl)cc1`, the GI50 was 2.08 µM with HCT-116 colon; 15.8 µM in the assay on NCI-H226 lung; 4.56 µM in the assay on IGROV1 ovarian; 13.1 µM with 786-0 renal; 16.2 µM in the assay on SK-MEL-2 melanoma; 18.4 µM in the assay with TK-10 renal. Further, the GI50 was 16.6 µM in the assay with M14 melanoma, 4.75 µM in the assay with U251 CNS and 24 µM in the assay on MOLT-4 leukemia. Further, the TGI in the assay with HCT-116 colon was 3.96 µM; in the assay with NCI-H226 lung, 37.6 µM; in the assay on IGROV1 ovarian, 17 µM; with 786-0 renal, 27.6 µM; in the assay on SK-MEL-2 melanoma, 37.7 µM; in the assay on TK-10 renal, 41.5 µM. Moreover, the values for the TGI in the assay with M14 melanoma, with U251 CNS and with MOLT-4 leukemia were 36.1 µM, 17.2 µM and more than 100 µM, respectively.

On to `[CH3][Sn]([CH3])([CH3])[O][N+](=O)[O-]`, for which the GI50 is 2.9 µM in the assay with HCT-116 colon; 3.5 µM in the assay on NCI-H226 lung; 2.39 µM in the assay with IGROV1 ovarian; 1.92 µM in the assay on 786-0 renal; 5.1 µM with SK-MEL-2 melanoma; more than 10 µM in the assay on TK-10 renal. For the same molecule, the GI50 with M14 melanoma is 6.33 µM; in the assay on U251 CNS it was 1.45 µM; in the assay with MOLT-4 leukemia, 3.2 µM. The TGI in the assay with HCT-116 colon is more than 10 µM; in the assay with NCI-H226 lung it was 7.39 µM; with IGROV1 ovarian, more than 10 µM; in the assay on 786-0 renal, 3.51 µM; in the assay with SK-MEL-2 melanoma, more than 10 µM; with TK-10 renal it was more than 10 µM. The TGI was more than 10 µM in the assay on M14 melanoma, 2.77 µM in the assay on U251 CNS and more than 10 µM with MOLT-4 leukemia.

Values taken from PubChem BioAssay (NCI).
